Measurements as given in patent US11591335B2, “Bicyclic pesticidal compounds” (BASF SE, priority 2017, dated 2023).

Experiments:
Format in all cases: in vivo
[1] = tested on: Bemisia argentifolii; experiment: Silverleaf whitefly (Bemisia argentifolii), sprayed cotton plants; details: 72 h, adults, 3 days after treatment, read-out: mortality in comparison with untreated controls
Protocol: (§1) The active compounds were formulated by a Tecan liquid handler in 100% cyclohexanone as a 10,000 ppm solution supplied in tubes. The 10,000 ppm solution was serially diluted in 100% cyclohexanone to make interim solutions. These served as stock solutions for which final dilutions were made by the Tecan in 50% acetone:50% water (v/v) into 5 or 10 ml glass vials. A nonionic surfactant (Kinetic®) was included in the solution at a volume of 0.01% (v/v). The vials were then inserted into an automated electrostatic sprayer equipped with an atomizing nozzle for application to plants/insects.
Cotton plants at the cotyledon stage (one plant per pot) were sprayed by an automated electrostatic plant sprayer equipped with an atomizing spray nozzle. The plants were dried in the sprayer fume hood and then removed from the sprayer. Each pot was pla-ced into a plastic cup and about 10 to 12 whitefly adults (approximately 3-5 days old) were introduced. The insects were collected using an aspirator and a nontoxic Tygon® tubing connected to a barrier pipette tip. The tip, containing the collected insects, was then gently inserted into the soil containing the treated plant, allowing insects to crawl out of the tip to reach the foliage for feeding. Cups were covered with a reusable screened lid. […] Mortality was assessed 3 days after treatment, compared to untreated control plants.

[2] = tested on: Heliothis virescens; experiment: Tobacco budworm (Heliothis virescens) control, microtiter plate insect diet test; details: 120 h, egg and larval mortality after 5 days, read-out: mortality in comparison with untreated controls
Protocol: For evaluating control of tobacco budworm (Heliothis virescens) the test unit consisted of 96-well-microtiter plates containing an insect diet and 15-25 H. virescens eggs.
The compounds were formulated using a solution containing 75% v/v water and 25% v/v DMSO. Different concentrations of formulated compounds were sprayed onto the insect diet at 10 μl, using a custom built micro atomizer, at two replications.
After application, microtiter plates were incubated at about 28±1° C. and about 80±5% relative humidity for 5 days. Egg and larval mortality was then visually assessed.

[3] = tested on: Spodoptera Eridania; experiment: Southern armyworm (Spodoptera Eridania), sprayed lima bean plants; details: 96 h, larvae, 4 days after treatment, read-out: mortality in comparison with untreated controls
Protocol: as §1, with “into 10” for “into 5”, “or 20” for “or 10”
Lima bean plants (variety Sieva) were grown 2 plants to a pot and selected for treatment at the 1st true leaf stage. Test solutions were sprayed onto the foliage by an automated electrostatic plant sprayer equipped with an atomizing spray nozzle. The plants were dried in the sprayer fume hood and then removed from the sprayer. Each pot was placed into perforated plastic bags with a zip closure. About 10 to 11 armyworm larvae were placed into the bag and the bags zipped closed. Test plants were maintained in a growth room at about 250C and about 20-40% relative humidity for 4 days, avoiding direct exposure to fluorescent light (24 hour photoperiod) to prevent trapping of heat inside the bags. Mortality and reduced feeding were assessed 4 days after treatment, compared to untreated control plants.

[4] = tested on: Myzuspersicae; experiment: Green peach aphid (Myzuspersicae) control through systemic means, artificial diet under membrane; details: Myzus persicae, 72 h, adult aphids on treated diet, 3 days, read-out: mortality in comparison with untreated controls
Excerpt: For evaluating control of green peach aphid (Myzuspersicae) through systemic means the test unit consisted of 96-well-microtiter plates containing liquid artificial diet under an artificial membrane.
The compounds were formulated using a solution containing 75% v/v water and 25% v/v DMSO. Different concentrations of formulated compounds were pipetted into the aphid diet, using a custom built pipetter, at two replications.
After application, 5-8 adult aphids were placed on the artificial membrane inside the microtiter plate wells. The aphids were then allowed to suck on the treated aphid diet and incubated at about 23±1° C. and about 50±5% relative humidity for 3 days. Aphid mortality and fecundity was then visually assessed.

[5] = tested on: Anthonomus grandis; experiment: Boll weevil (Anthonomus grandis) control, microtiter plate insect diet test; details: 120 h, egg and larval mortality after 5 days, read-out: mortality in comparison with untreated controls
Protocol: For evaluating control of boll weevil (Anthonomus grandis) the test unit consisted of 96-well-microtiter plates containing an insect diet and 5-10 A. grandis eggs.
The compounds were formulated using a solution containing 75% v/v water and 25% v/v DMSO. Different concentrations of formulated compounds were sprayed onto the insect diet at 5 μl, using a custom built micro atomizer, at two replications.
After application, microtiter plates were incubated at about 25±1° C. and about 75±5% relative humidity for 5 days. Egg and larval mortality was then visually assessed.

[6] = tested on: Plutella xylostella; experiment: Diamond back moth (Plutella xylostella), cabbage leaf dip test; details: foliar, 3rd instar larvae, 72 hours after treatment, read-out: mortality in comparison with untreated controls
Protocol: (§2) The active compound is dissolved at the desired concentration in a mixture of 1:1 (vol:vol) distilled water: acetone. Surfactant (Kinetic® HV) is added at a rate of 0.01% (vol/vol). The test solution is prepared at the day of use.
Leaves of cabbage were dipped in test solution and air-dried. Treated leaves were placed in petri dishes lined with moist filter paper and inoculated with ten 3rd instar larvae. Mortality was recorded 72 hours after treatment. Feeding damages were also recorded using a scale of 0-100%.

[7] = tested on: Megoura viciae; experiment: Vetch aphid (Megoura viciae) control, broad bean leaf disk test; details: foliar, 120 h, adult aphids on treated leaf disks, 5 days, read-out: mortality in comparison with untreated controls
Protocol: For evaluating control of vetch aphid (Megoura viciae) through contact or systemic means the test unit consisted of 24-well-microtiter plates containing broad bean leaf disks.
The compounds were formulated using a solution containing 75% v/v water and 25% v/v DMSO. Different concentrations of formulated compounds were sprayed onto the leaf disks at 2.5 μl, using a custom built micro atomizer, at two replications.
After application, the leaf disks were air-dried and 5-8 adult aphids placed on the leaf disks inside the microtiter plate wells. The aphids were then allowed to suck on the treated leaf disks and incubated at about 23±1° C. and about 50±5% relative humidity for 5 days. Aphid mortality and fecundity was then visually assessed.

[8] = tested on: Nezara viridula; experiment: Green soldier stink bug (Nezara viridula), sprayed soybean pods in Petri dishes; details: 120 h, late 3rd instar, after 5 days, read-out: mortality in comparison with untreated controls
Protocol: The active compound is dissolved at the desired concentration in a mixture of 1:1 (vol:vol) distilled water: aceteone. Surfactant (Kinetic® HV) is added at a rate of 0.01% (vol/vol). The test solution is prepared at the day of use.
Soybean pods were placed in 90×50 mm glass Petri dishes lined with moist filter paper and inoculated with ten late 3rd instar N. viridula. Using a hand atomizer, an approximately 2 ml solution is sprayed into each Petri dish. Treated cups were kept at about 25-26° C. and relative humidity of about 65-70%. Percent mortality was recorded after 5 days.

[9] = tested on: Nilaparvata lugens; experiment: Rice brown plant hopper (Nilaparvata lugens), sprayed rice seedlings; details: adults, after 72 hours, read-out: mortality in comparison with untreated controls
Protocol: (§3) Four to five-week old rice seedlings were cleaned and washed 24 hours before spraying. The active compounds were formulated in 1:1 acetone:water (vol:vol) and 0.01% vol/vol surfactant (Kinetic® HV) was added. Potted rice seedlings were sprayed with 5-6 ml test solution, air dried, covered with Mylar cages and inoculated with 10 adults. Treated rice plants were kept at about 28-29° C. and relative humidity of about 50-60%. Percent mortality was recorded after 72 hours.

[10] = tested on: Nephotettix virescens; experiment: Rice green leafhopper (Nephotettix virescens), sprayed rice seedlings; details: adults, after 72 hours, read-out: mortality in comparison with untreated controls
Protocol: as §3, with “rice seedlings with cut upper leaf portion were cleaned” for “rice seedlings were cleaned”, “1:1 acetone:water (vol:vol), and 0.01%” for “1:1 acetone:water (vol:vol) and 0.01%”

[11] = tested on: Aphis craccivora; experiment: Cowpea aphid (Aphis craccivora), sprayed potted cowpea plants; details: after 72 hours, read-out: mortality in comparison with untreated controls
Protocol: as §2
Potted cowpea plants were colonized with approximately 30-50 aphids of various stages by manually transferring a leaf tissue cut from infested plant 24 hours before application. Plants were sprayed with the test solutions using a DeVilbiss® hand atomizer at 20-30 psi (=1.38 to 2.07 bar) after the pest population has been checked. Treated plants are maintained on light carts at about 25-26° C. Percent mortality was assessed after 72 hours.

[12] = tested on: Chilo suppressalis; experiment: Striped stem borer (Chilo suppressalis), sprayed petriplates with rice straw; details: 300 ppm; first-instar larvae, 72 hours after treatment
Protocol: as §2
Ten first-instar larvae are allowed to crawl on sprayed petriplates for 1 minute and then provided with one freshly cut rice straw per plate. After 10 minutes when all of the larvae are inside the straw will then be covered with Petri lid. Percent mortality is recorded after 72 hours after treatment.

CCS(=O)(=O)c1ccc(-n2cnc(C(F)(F)F)n2)nc1-c1cn2c(=O)n(C)c(C(F)(F)F)cc2n1 [I-1-1, 2-[3-ethylsulfonyl-6-[3-(trifluoromethyl)-1,2,4-triazol-1-yl]-2-pyridyl]-6-methyl-7-(trifluoromethyl)imidazo[1,2-c]pyrimidin-5-one]
mortality at 300 ppm [1]: > 75%
mortality at 2500 ppm [2]: > 75%
mortality at 300 ppm [3]: > 75%
mortality at 2500 ppm [4]: > 75%
mortality at 2500 ppm [5]: > 75%
mortality at 300 ppm [6]: > 75%

CCS(=O)(=O)c1cc(N2CCCC2=O)cnc1-c1cn2c(=O)n(C)c(C(F)(F)F)cc2n1 [I-1-3, 2-[3-ethylsulfonyl-5-(2-oxopyrrolidin-1-yl)-2-pyridyl]-6-methyl-7-(trifluoromethyl)imidazo[1,2-c]pyrimidin-5-one]
mortality at 2500 ppm [7]: > 75%
mortality at 2500 ppm [2]: > 75%
mortality at 300 ppm [8]: > 75%
mortality at 300 ppm [9]: > 75%
mortality at 300 ppm [3]: > 75%
mortality at 300 ppm [10]: > 75%
mortality at 2500 ppm [4]: > 75%
mortality at 2500 ppm [5]: > 75%
mortality at 300 ppm [11]: > 75%

CCS(=O)(=O)c1cc(-c2ncccc2F)cnc1-c1cn2c(=O)n(C)c(C(F)(F)F)cc2n1 [I-1-4]
mortality in comparison with untreated controls [12]: over 75%
